Where “and” joins values, the source holds several entries; their conditions need not be identical. Identical values can stand only once.
Experiments:
[1] = test system: patients with DE-associated NOP; assay: Ocular Pain Assessment Survey (OPAS) in pilot study of topical cryosim-3; format: in vivo, human; conditions: C3 2 mg/mL eyelid wipe 4 times/day, mean ± SD, 15 patients; for OPAS Tearing (0-1): baseline 0.36 ± 0.29; for OPAS Redness (0-1): baseline 0.41 ± 0.32; for OPAS Chemical stimuli (0-1): baseline 0.47 ± 0.35; for OPAS Burning sensation (0-1): baseline 0.57 ± 0.37; for OPAS Mechanical stimuli (0-1): baseline 0.63 ± 0.29; for OPAS Sensitivity to light (0-1): baseline 0.76 ± 0.24; for OPAS Aggravating factors (total 0-2): baseline 1.11 ± 0.49; for OPAS Associated factors (total 0-4): baseline 2.09 ± 0.76; for OPAS General activity (walking, etc.) (0-10): baseline 4.00 ± 3.18; for OPAS Sleep (0-10): baseline 4.27 ± 3.81; for OPAS Enjoying life/relations with other people (0-10): baseline 5.07 ± 2.84; for OPAS Mood (0-10): baseline 5.40 ± 2.77; for OPAS Driving and/or watching TV (0-10): baseline 6.80 ± 2.31; for OPAS Non-eye pain (0-20): baseline 7.67 ± 6.22; for OPAS Reading and/or computer use (0-10): baseline 7.79 ± 1.76; for OPAS Eye pain intensity (0-60): baseline 30.60 ± 12.84; for OPAS Quality of life (total 0-60): baseline 33.53 ± 14.24
Experimental: (§1) This prospective non-randomized pilot study was conducted in accordance with the tenets of the Declaration of Helsinki. Ethical approval was obtained from the Chonnam National University Hospital Institutional Review Board (CNUH-2018-274). Informed consent was obtained from all included patients. The sample size was calculated using the G*Power software (version 3.1.9.4; Heinrich-Heine University, Germany) with a level of α=0.05 and a power of 95% to detect a 2-point difference in pain scales. Accordingly, a total sample size of 13 patients was found sufficient.
(§2) Patients with DE accompanied by NOP features, who underwent evaluation between January and December in 2018, were enrolled. DE was diagnosed based on OSDI score ≥13 and tear break-up time (TBUT) ≤7 s. The inclusion criteria were as follows: (1) chronic ocular pain which was unresponsive to conventional topical agents (i.e. lubricants, anti-inflammatories, secretagogues, etc.) for >3 months; (2) discordance between the painful DE symptoms and signs accompanying with specific descriptors, including burning or stinging; and (3) a Wong-Baker FACES Pain Rating Scale (WBFPS) score […].
(§3) The patients were treated with add-on C3 while undergoing conventional topical treatment. C3 samples (2 mg/mL) were diluted in purified water, soaked in gauze, and packaged using automated equipment. The patients applied topical C3 by wiping the gauze on the closed eyelid margin, 4 times/day for 1 month (FIG. 1).
The WBFPS was chosen to screen the pain severity in the patients with DE. The patients chose the face that best depicted the pain they were experiencing. At baseline, 1 week, and 1 month after treatment, the patients also completed the OPAS which is a validated questionnaire for neuropathic pain as previously described. The questions were divided into sections for analysis: questions 4-9, pertained to eye pain intensity (0 to 60); questions 10-11, pertained to non-eye pain (0 to 20); questions 13-19 (0-10, total score 0 to 60), assessed the QoL (reading and/or computer use, driving and/or watching TV, general activity, mood, sleep, and enjoying life/relations with other people); questions 20-21 (each score 0-1, total score 0-2), assessed aggravating factors (mechanical and chemical stimuli); and questions 22-25 (each score 0-1, total score 0-4), assessed associated factors (redness; burning; sensitivity to light; and tearing). The section on symptomatic relief of the OPAS was excluded, and only questions 4-25 were analyzed. The questions were divided into 5 sections as follows: eye pain intensity, non-eye pain, QoL, aggravating factors, and associated factors.
(§4) Statistical analyses were conducted using PASW Statistics for Windows, Version 18.0 (SPSS Inc., Chicago, IL, USA). The normality of distribution was assessed using the Shapiro-Wilk test. The Wilcoxon signed-rank test and repeated-measures analysis of variance with Bonferroni's post-hoc test were used for comparing parameters before and after treatment. A P<0.05 was considered statistically significant.

[2] = test system: patients with DE-associated NOP; assay: Clinical dry eye parameters (OSDI, TBUT, Schirmer test, corneal staining) in pilot study; format: in vivo, human; conditions: C3 2 mg/mL eyelid wipe 4 times/day, 1-month, mean ± SD
From the text: as §2, §3
The OSDI questionnaire which ranged from 0 to 100 was used to quantify the vision-related QoL. TBUT (tear breakup time), the time interval between the last complete blink and the first appearance of disruption of the tear film, was measured thrice and the mean value was used for analysis. Corneal staining scores were assessed using the area-density index, by multiplying the area and density score. The Schirmer test score represented the length of wetting, and was measured using a calibrated sterile strip placed at the lateral canthus for 5 min under topical anesthesia (0.5% proparacaine). Only the score of the right eye was assessed.
as §4

[3] = test system: patients with DE-associated NOP; assay: Wong-Baker FACES Pain Rating Scale (WBFPS) in enrolled patients; format: in vivo, human; conditions: individual patients No. 1-15
From the text: as §2
The patients were treated with add-on C3 while undergoing conventional topical treatment. […]
The WBFPS was chosen to screen the pain severity in the patients with DE. […] The questions were divided into sections for analysis: questions 4-9, pertained to eye pain intensity (0 to 60); questions 10-11, pertained to non-eye pain (0 to 20); questions 13-19 (0-10, total score 0 to 60), assessed the QoL (reading and/or computer use, driving and/or watching TV, general activity, mood, sleep, and enjoying life/relations with other people); questions 20-21 (each score 0-1, total score 0-2), assessed aggravating factors (mechanical and chemical stimuli); and questions 22-25 (each score 0-1, total score 0-4), assessed associated factors (redness; burning; sensitivity to light; and tearing). […]

[4] = test system: patients with DE accompanying NOP features; assay: Pilot study: discontinuation, safety and onset of effect; format: in vivo, human
Experimental: as §1, §3
This study enrolled 20 patients with DE accompanying NOP features. Five patients (25.0%) discontinued the treatment because of drug ineffectiveness or intolerance. The remaining 15 patients (75.0%) were included in the analysis. Their mean age was 59.5±13.0 years, and nine patients (60.0%) were women.

patients with mild DE = conditions: cited from earlier work
[5] = topical C3 in DE, previous study

## CCCCCCCCCP(=O)(C(C)C)C(C)C [cryosim-3, 1-[Diisopropyl-phosphinoyl]-nonane]
[1]; 1-month
  OPAS Tearing (0-1): 0.21 ± 0.27
  OPAS Redness (0-1): 0.39 ± 0.30
  OPAS Chemical stimuli (0-1): 0.41 ± 0.32
  OPAS Burning sensation (0-1): 0.29 ± 0.29
  OPAS Mechanical stimuli (0-1): 0.47 ± 0.26
  OPAS Sensitivity to light (0-1): 0.59 ± 0.28
  OPAS Aggravating factors (total 0-2): 0.88 ± 0.57
  OPAS Associated factors (total 0-4): 1.58 ± 0.93
  OPAS General activity (walking, etc.) (0-10): 3.20 ± 2.86
  OPAS Sleep (0-10): 2.73 ± 3.81
  OPAS Enjoying life/relations with other people (0-10): 4.27 ± 3.03
  OPAS Mood (0-10): 4.40 ± 2.47
  OPAS Driving and/or watching TV (0-10): 5.60 ± 2.90
  OPAS Non-eye pain (0-20): 5.47 ± 5.62
  OPAS Reading and/or computer use (0-10): 6.93 ± 2.59
  OPAS Eye pain intensity (0-60): 21.53 ± 10.84
  OPAS Quality of life (total 0-60): 27.17 ± 16.06
[1]; 1-week
  OPAS Tearing (0-1): 0.17 ± 0.18
  OPAS Redness (0-1): 0.41 ± 0.30
  OPAS Chemical stimuli (0-1): 0.41 ± 0.35
  OPAS Burning sensation (0-1): 0.40 ± 0.33
  OPAS Mechanical stimuli (0-1): 0.47 ± 0.25
  OPAS Sensitivity to light (0-1): 0.57 ± 0.26
  OPAS Aggravating factors (total 0-2): 0.87 ± 0.56
  OPAS Associated factors (total 0-4): 1.55 ± 0.85
  OPAS General activity (walking, etc.) (0-10): 3.27 ± 2.71
  OPAS Sleep (0-10): 2.93 ± 3.67
  OPAS Enjoying life/relations with other people (0-10): 4.33 ± 2.97
  OPAS Mood (0-10): 4.53 ± 2.50
  OPAS Driving and/or watching TV (0-10): 5.27 ± 2.52
  OPAS Non-eye pain (0-20): 6.73 ± 6.18
  OPAS Reading and/or computer use (0-10): 7.14 ± 2.48
  OPAS Eye pain intensity (0-60): 26.47 ± 11.45
  OPAS Quality of life (total 0-60): 27.60 ± 15.49
[2]; 5 min under topical anesthesia, baseline 7.07 ± 2.76
  Schirmer test score: 8.47 ± 2.80 mm
[2]; baseline 0.60 ± 0.91
  Corneal staining score (0-9): 0.13 ± 0.35
[2]; baseline 4.13 ± 0.83
  Tear break-up time: 4.00 ± 0.85 s
[2]; scale 0 to 100, baseline 57.5 ± 13.8
  Ocular surface disease index: 40.2 ± 12.6
[3]; 1 month of add-on C3 2 mg/mL eyelid wipe 4 times/day
  WBFPS score: 2 and 5 (4×) and 6 (2×) and 3 and 4 (3×) and 1 (3×) and 7
[3]; 1 week of add-on C3 2 mg/mL eyelid wipe 4 times/day
  WBFPS score: 1 (4×) and 7 (3×) and 6 (5×) and 3 and 5 (2×)
[4]; five of 20 enrolled patients
  patients who discontinued the treatment because of drug ineffectiveness or intolerance: 25.0%
[4]; patients unresponsive to conventional treatment (122.7 days)
  time to improvement of ocular pain after C3 treatment: ≤ 1 week
[4]; patients with DE
  safety and effectiveness of topical application to the eyelid in relieving NOP: safe and effective
Patients with mild DE; [5]
  effect on basal tear secretion: increasing basal tear secretion
  effect on ocular discomfort: alleviating ocular discomfort without any complications
Patients with mild DE; wiping of C3
  duration of painless cooling sensation after wiping: approximately 40 minutes

Source: patent US20240316078A1, “Treatment of Neuropathic Sensitization Disorders” (IVIEW Therapeutics, Inc., priority 2021, published 2024)
